Assay results: patent US6716428B1, “Antigenic modification of polypeptides” (The Ohio State University Research Foundation, priority 1999, dated 2004)
Like-named read-outs stand apart in the source and are kept apart here.

Tests used:
baboons = experiment: Breeding of immunized baboons (pre-mate titer, ovulation, pregnancy), Diazo-β-HCG presensitized, Diazo-β-HCG-(111-145) booster; assay type: in vivo, baboon; settings: for Pre-Mate Titer: baboon 2, matings No. 1-10 over approximately one year
Description: Baboons were immunized initially with a beta subunit of HCG modified by diazotization in a manner similar to that described in conjunction with Example II. Following this initial administration, the baboons were injected 21 and 42 days later with the peptide of Structure (II) above which had been modified by the same diazotization process. The levels were maintained for a period of over one year.
The Table presents the results of mating these animals ten times over a period of approximately one year. […] Such cross reactivity may be avoided by the utilization of the fragment conjugation procedures set forth in detail hereinabove.

[1] = tested on: peptide used in the conjugate (Structure (II), (XII), (XIV), (X)); experiment: Antibody level to the peptide of the conjugate in immunized mice (^125I antigen, double antibody technique); assay type: in vivo; settings: for Antibody level to Structure (XII): 52 days; for Antibody Level to Peptide: mice, carrier series
HCG [2] = experiment: Antibody level to HCG in immunized mice (^125I antigen, double antibody technique); assay type: in vivo; settings: for Antibody level to CG: 52 days; for Antibody Level to HCG: mice, carrier series
HCG [3] = assay type: in vivo, rabbit
female baboons = experiment: Fertility rates (matings and pregnancies) of immunized female baboons; assay type: in vivo, baboon; settings: CFA

Diazo-β-HCG-(111-145): peptide of Structure (II) modified by diazotization, booster after presensitization with diazotized beta subunit of HCG (DDPRFQDSSSSKAPPPSLPSPSRLPGPSDTPILPQ; diazo conjugate; UniProt P0DN86 131-165, looked up, fragment)
Pre-Mate Titer (baboons; before Mating No. 2): 4.10
Pre-Mate Titer (baboons; before Mating No. 3): 4.00
Pre-Mate Titer (baboons; before Mating No. 4): 3.89
Pre-Mate Titer (baboons; before Mating No. 5): 3.76
Pre-Mate Titer (baboons; before Mating No. 6): 5.00
Pre-Mate Titer (baboons; before Mating No. 7): 4.75
Pre-Mate Titer (baboons; before Mating No. 8): 4.20
Pre-Mate Titer (baboons; before Mating No. 9): 4.25
antibody cross reactivity with LH (baboons; in vivo): antibody cross reactivity with LH was observed

N-Palmitoyl-S-[2(R,S)-3-dipalmitoyloxy-propyl]-L-Cys-L-Ser-L-Ser-L-Asn-L-Ala-L-Glu [CGP 16940]
Antibody level to Structure (XII) [1]: 110.0 ng/mL
Antibody level to Structure (XII) ([1]; C3H/He mice, same conjugate): 19.2 ng/mL
Antibody level to Structure (XII) ([1]; DBA/1 mice, same conjugate): 173.0 ng/mL
Antibody level to Structure (XII) ([1]; SJL mice, same conjugate): 369.0 ng/mL
Antibody level to CG (HCG [2]): 1.0 ng/mL
Antibody level to CG (HCG [2]; C3H/He mice, same conjugate): <1.0 ng/mL
Antibody level to CG (HCG [2]; DBA mice, same conjugate): <1.0 ng/mL
Antibody level to CG (HCG [2]; SJL mice, same conjugate): 8.6 ng/mL
HCG antibody levels compared with the CFA immunized rabbits (HCG [3]; in vivo): significantly lower

NAc-Mur-L.Ala-D.isoGln-L.Ala-Cephalin [CGP 19835]
Mean Antibody Level-^125I-HCG (HCG [3]; as E193, 4 weeks): 286.7 M/L × 10^10
Mean Antibody Level-^125I-HCG (HCG [3]; as E193, 5 weeks): 140.3 M/L × 10^10
Mean Antibody Level-^125I-HCG (HCG [3]; as E193, 6 weeks): 172.0 M/L × 10^10
Mean Antibody Level-^125I-HCG (HCG [3]; as E193, 7 weeks): 123.4 M/L × 10^10
Mean Antibody Level-^125I-HCG (HCG [3]; as E193, 8 weeks): 138.9 M/L × 10^10
Mean Antibody Level-^125I-HCG (HCG [3]; as E193, 9 weeks): 105.2 M/L × 10^10
Mean Antibody Level-^125I-HCG (HCG [3]; as E193, 10 weeks): 151.3 M/L × 10^10
Mean Antibody Level-^125I-HCG (HCG [3]; as E193, 11 weeks): 169.3 M/L × 10^10
Mean Antibody Level-^125I-HCG (HCG [3]; as E193, 12 weeks): 107.8 M/L × 10^10
Mean Antibody Level-^125I-HCG (HCG [3]; in vivo): 19.3 M/L × 10^10

NGlycol-Mur-L. a -Abu-D.isoGln [DT-1]
Mean Antibody Level-^125I-HCG (HCG [3]; as E193, 4 weeks): 145.1 M/L × 10^10
Mean Antibody Level-^125I-HCG (HCG [3]; as E193, 5 weeks): 184.1 M/L × 10^10
Mean Antibody Level-^125I-HCG (HCG [3]; as E193, 6 weeks): 268.6 M/L × 10^10
Mean Antibody Level-^125I-HCG (HCG [3]; as E193, 7 weeks): 371.5 M/L × 10^10
Mean Antibody Level-^125I-HCG (HCG [3]; as E193, 8 weeks): 366.2 M/L × 10^10
Mean Antibody Level-^125I-HCG (HCG [3]; as E193, 9 weeks): 654.8 M/L × 10^10
Mean Antibody Level-^125I-HCG (HCG [3]; as E193, 10 weeks): 729.4 M/L × 10^10
Mean Antibody Level-^125I-HCG (HCG [3]; as E193, 11 weeks): 627.5 M/L × 10^10
Mean Antibody Level-^125I-HCG (HCG [3]; as E193, 12 weeks): 559.0 M/L × 10^10
HCG antibody levels compared with rabbits receiving adjuvants CGP 16940 and 12908 (HCG [3]; in vivo): significantly greater
Mean Antibody Level-^125I-HCG (HCG [3]; in vivo): 31.1 M/L × 10^10

Structure (XII): residues 109-145 of beta-HCG, SEQ ID NO: 13; unconjugated in Table 11 (carrier None) (TCDDPRFQDSSSSKAPPPSLPSPSRLPGPSDTPILPQ; listed as Homo sapiens)
Antibody Level to Peptide ([1]; peptide of Structure (XII), 21 days after primary immunization): 1.3 ng/mL
Antibody Level to Peptide ([1]; 35 days): 0.8 ng/mL
Antibody Level to HCG (HCG [2]; 21 days): 0.1 ng/mL
Antibody Level to HCG (HCG [2]; 35 days): 0.1 ng/mL

Tetanus Toxoid: carrier protein given alone to the control group
Fertility Rate (female baboons; Mating Cycle 1): 66.7%
Number Pregnant (female baboons; Mating Cycle 1): 10
Fertility Rate (female baboons; Mating Cycle 2): 80.0%
Number Pregnant (female baboons; Mating Cycle 2): 4
Fertility Rate (female baboons; Mating Cycle 3): 100.0%
Number Pregnant (female baboons; Mating Cycle 3): 1
Overall Fertility Rate (female baboons; all matings of three mating cycles): 71.4%
Total Number Pregnant (female baboons; three mating cycles): 15
